The inhibition is the percentage by which the read-out fell short of the control.

SMILES strings stand for the structures.

The subject of the first test is IL-1β release from THP-1 cells. Nature of the test: IL-1β Release Assay (Alternate Method), THP-1 cells. The class given is cell-based, human. The settings on record: Homo sapiens, THP-1, read-out: IL-1β % inhibition. In outline:
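IL-1β release, measured by ELISA, follows 45 min BzATP (250 uM final) stimulation of THP-1 cells given 30 min compound pretreatment. Cells were first primed 16 h with LPS and IFN-γ (100 ng/mL each), then 2 h with fresh LPS; inhibition expressed in percent after background correction.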
Take `O=C(CC12CC3CC(CC(C3)C1)C2)Nc1ncnc2c1CCN(S(=O)(=O)c1ccccc1)C2` [Compound 143]: the inhibition at 0.3 µM was in the range of 0 to 25%.

The test is the same for the next values; noted with them: Homo sapiens; at 0.3 μM; THP-1 cells; read-out: IL-1β % inhibition.
`O=C(NCC12CC3CC(CC(C3)C1)C2)c1ncnc2c1CCN(Cc1ccc(F)cc1F)C2` [Compound 137]: the inhibition at 0.3 µM is 50 to 75%.

Staying with this test, now noted: at 0.3 μM; THP-1 cells.
Take `O=C(CC1CCCCCC1)Nc1ncnc2c1CCN(CCc1ccccc1)C2` [Compound 129]: the IL-1β % inhibition result is listed as “+ (compound exhibited 0-25% inhibition at 0.3 μM)”.
Same read-out and setting: with `O=C(CC1CCCCCC1)Nc1ncnc2c1CCN(Cc1ccc(F)cc1)C2` [Compound 130] the entry was “+ (compound exhibited 0-25% inhibition at 0.3 μM)”; with `O=C(CC12CC3CC(CC(C3)C1)C2)Nc1ncnc2c1CCN(Cc1cccc(C(F)(F)F)c1F)C2` [Compound 131], “+ (compound exhibited 0-25% inhibition at 0.3 μM)”.
Turning to `COc1ccccc1CCC(=O)Nc1ncnc2c1CCN(Cc1ccncc1)C2` [Compound 133], the IL-1β % inhibition result is listed as “+ (compound exhibited 0-25% inhibition at 0.3 μM)”.
On to `COc1ccccc1CCC(=O)Nc1ncnc2c1CCN(Cc1ccccn1)C2` [Compound 134], for which the IL-1β % inhibition entry is “+ (compound exhibited 0-25% inhibition at 0.3 μM)”.
Same read-out and setting: the result for `COc1ccccc1CCC(=O)Nc1ncnc2c1CCN(Cc1c[nH]cn1)C2` [Compound 135] reads “+ (compound exhibited 0-25% inhibition at 0.3 μM)”.
Turning to `COc1ccccc1CCC(=O)Nc1ncnc2c1CCN(CC1CCCCC1)C2` [Compound 136], the IL-1β % inhibition result is listed as “+ (compound exhibited 0-25% inhibition at 0.3 μM)”.
On the same count and under the same terms, the result for `O=C(NCC12CC3CC(CC(C3)C1)C2)c1ncnc2c1CCN(Cc1ccc3c(c1)OCCO3)C2` [Compound 138] reads “++++ (compound exhibited 75% or greater inhibition at 0.3 μM)”; that for `O=C(NCC12CC3CC(CC(C3)C1)C2)c1ncnc2c1CCN(Cc1ccccc1F)C2` [Compound 139], “++ (compound exhibited 25-50% inhibition at 0.3 μM)”; that for `O=C(O)COc1ccc(CN2CCc3c(ncnc3NC(=O)CC34CC5CC(CC(C5)C3)C4)C2)cc1` [Compound 140], “+ (compound exhibited 0-25% inhibition at 0.3 μM)”.
Still for that read-out and setting: the result for `O=C(O)COc1ccccc1CN1CCc2c(ncnc2NC(=O)CC23CC4CC(CC(C4)C2)C3)C1` [Compound 141] reads “+ (compound exhibited 0-25% inhibition at 0.3 μM)”; that for `CS(=O)(=O)N1CCc2c(ncnc2NC(=O)CC23CC4CC(CC(C4)C2)C3)C1` [Compound 142], “+++ (compound exhibited 50-75% inhibition at 0.3 μM)”.
Same read-out and setting: with `Cc1ccc(S(=O)(=O)N2CCc3c(ncnc3NC(=O)CC34CC5CC(CC(C5)C3)C4)C2)cc1` [Compound 144] the entry was “+++ (compound exhibited 50-75% inhibition at 0.3 μM)”; with `CCCS(=O)(=O)N1CCc2c(ncnc2NC(=O)CC23CC4CC(CC(C4)C2)C3)C1` [Compound 147], “++++ (compound exhibited 75% or greater inhibition at 0.3 μM)”; with `CCS(=O)(=O)N1CCc2c(ncnc2NC(=O)CC23CC4CC(CC(C4)C2)C3)C1` [Compound 148], “+ (compound exhibited 0-25% inhibition at 0.3 μM)”.
As to `COc1ccc(S(=O)(=O)N2CCc3c(ncnc3NC(=O)CC34CC5CC(CC(C5)C3)C4)C2)cc1` [Compound 149], the IL-1β % inhibition entry was “+++ (compound exhibited 50-75% inhibition at 0.3 μM)”.
In the case of `COc1ccc(S(=O)(=O)N2CCc3c(ncnc3NC(=O)CC34CC5CC(CC(C5)C3)C4)C2)cc1OC` [Compound 151], the IL-1β % inhibition result is given as “+ (compound exhibited 0-25% inhibition at 0.3 μM)”.
Turning to `O=C(CC12CC3CC(CC(C3)C1)C2)Nc1ncnc2c1CCN(S(=O)(=O)c1ccc(F)cc1)C2` [Compound 152], the IL-1β % inhibition entry is given as “+ (compound exhibited 0-25% inhibition at 0.3 μM)”.
As to `O=C(CC12CC3CC(CC(C3)C1)C2)Nc1ncnc2c1CCN(S(=O)(=O)Cc1ccccc1)C2` [Compound 153], the IL-1β % inhibition entry is “++++ (compound exhibited 75% or greater inhibition at 0.3 μM)”.
As for `O=C(CC12CC3CC(CC(C3)C1)C2)Nc1ncnc2c1CCN(S(=O)(=O)c1cccc(C(F)(F)F)c1)C2` [Compound 154], the IL-1β % inhibition entry is reported as “++++ (compound exhibited 75% or greater inhibition at 0.3 μM)”.
On to `O=C(CC12CC3CC(CC(C3)C1)C2)Nc1ncnc2c1CCN(S(=O)(=O)c1ccc(Cl)c(Cl)c1)C2` [Compound 155], for which the IL-1β % inhibition entry is recorded as “+ (compound exhibited 0-25% inhibition at 0.3 μM)”.
As to `CN1CCOc2cc(S(=O)(=O)N3CCc4c(ncnc4NC(=O)CC45CC6CC(CC(C6)C4)C5)C3)ccc21` [Compound 157], the IL-1β % inhibition result was “+ (compound exhibited 0-25% inhibition at 0.3 μM)”.
Same read-out and setting: the result for `Cc1nn(C)c(Cl)c1S(=O)(=O)N1CCc2c(ncnc2NC(=O)CC23CC4CC(CC(C4)C2)C3)C1` [Compound 158] reads “+ (compound exhibited 0-25% inhibition at 0.3 μM)”; that for `Cc1cc(S(=O)(=O)N2CCc3c(ncnc3NC(=O)CC34CC5CC(CC(C5)C3)C4)C2)c(C(F)(F)F)o1` [Compound 159], “+ (compound exhibited 0-25% inhibition at 0.3 μM)”.
On the same count and under the same terms, with `Cc1c(S(=O)(=O)N2CCc3c(ncnc3NC(=O)CC34CC5CC(CC(C5)C3)C4)C2)cnn1-c1ccccc1` [Compound 160] the entry was “++++ (compound exhibited 75% or greater inhibition at 0.3 μM)”; with `O=C(CC12CC3CC(CC(C3)C1)C2)Nc1ncnc2c1CCN(S(=O)(=O)c1cccc(OC(F)(F)F)c1)C2` [Compound 161], “++ (compound exhibited 25-50% inhibition at 0.3 μM)”; with `COc1cccc(S(=O)(=O)N2CCc3c(ncnc3NC(=O)CC34CC5CC(CC(C5)C3)C4)C2)c1` [Compound 162], “+ (compound exhibited 0-25% inhibition at 0.3 μM)”.
Still for that read-out and setting: the result for `Cc1nc(S(=O)(=O)N2CCc3c(ncnc3NC(=O)CC34CC5CC(CC(C5)C3)C4)C2)cn1C` [Compound 164] reads “+ (compound exhibited 0-25% inhibition at 0.3 μM)”; that for `N#Cc1ccc(S(=O)(=O)N2CCc3c(ncnc3NC(=O)CC34CC5CC(CC(C5)C3)C4)C2)c(Cl)c1` [Compound 165], “+++ (compound exhibited 50-75% inhibition at 0.3 μM)”; that for `O=C(CC12CC3CC(CC(C3)C1)C2)Nc1ncnc2c1CCN(S(=O)(=O)c1ccccc1F)C2` [Compound 166], “++ (compound exhibited 25-50% inhibition at 0.3 μM)”.
In the case of `N#Cc1ccc(S(=O)(=O)N2CCc3c(ncnc3NC(=O)CC34CC5CC(CC(C5)C3)C4)C2)cc1` [Compound 167], the IL-1β % inhibition result is reported as “++ (compound exhibited 25-50% inhibition at 0.3 μM)”.
On the same count and under the same terms, with `O=C(CC12CC3CC(CC(C3)C1)C2)Nc1ncnc2c1CCN(S(=O)(=O)c1cccc(Cl)c1)C2` [Compound 168] the entry was “++++ (compound exhibited 75% or greater inhibition at 0.3 μM)”; with `Cc1noc(C)c1S(=O)(=O)N1CCc2c(ncnc2NC(=O)CC23CC4CC(CC(C4)C2)C3)C1` [Compound 169], “++ (compound exhibited 25-50% inhibition at 0.3 μM)”; with `O=C(CC12CC3CC(CC(C3)C1)C2)Nc1ncnc2c1CCN(S(=O)(=O)c1ccc(Oc3ccccn3)cc1)C2` [Compound 172], “+++ (compound exhibited 50-75% inhibition at 0.3 μM)”.
Still for that read-out and setting: the result for `O=C(CC12CC3CC(CC(C3)C1)C2)Nc1ncnc2c1CCN(S(=O)(=O)c1ccc(Oc3cccnc3)cc1)C2` [Compound 174] reads “++++ (compound exhibited 75% or greater inhibition at 0.3 μM)”; that for `COc1ccc(Oc2ccc(S(=O)(=O)N3CCc4c(ncnc4NC(=O)CC45CC6CC(CC(C6)C4)C5)C3)cc2)cc1` [Compound 175], “+++ (compound exhibited 50-75% inhibition at 0.3 μM)”; that for `O=C(CC12CC3CC(CC(C3)C1)C2)Nc1ncnc2c1CCN(S(=O)(=O)c1ccc(Oc3ccc(C(F)(F)F)cc3)cc1)C2` [Compound 177], “++ (compound exhibited 25-50% inhibition at 0.3 μM)”.
In the case of `O=C(CC12CC3CC(CC(C3)C1)C2)Nc1ncnc2c1CCN(S(=O)(=O)c1cc(C(F)(F)F)ccc1Cl)C2` [Compound 181], the IL-1β % inhibition result is listed as “++ (compound exhibited 25-50% inhibition at 0.3 μM)”.
Regarding `O=C(CC12CC3CC(CC(C3)C1)C2)Nc1ncnc2c1CCN(S(=O)(=O)Cc1cc(C(F)(F)F)cc(C(F)(F)F)c1)C2` [Compound 182], the IL-1β % inhibition result was “+++ (compound exhibited 50-75% inhibition at 0.3 μM)”.
Same read-out and setting: the result for `O=C(CC12CC3CC(CC(C3)C1)C2)Nc1ncnc2c1CCN(S(=O)(=O)Cc1ccc(C(F)(F)F)cc1)C2` [Compound 183] reads “++ (compound exhibited 25-50% inhibition at 0.3 μM)”; that for `O=C(CC12CC3CC(CC(C3)C1)C2)Nc1ncnc2c1CCN(S(=O)(=O)Cc1ccc(F)cc1)C2` [Compound 184], “++++ (compound exhibited 75% or greater inhibition at 0.3 μM)”; that for `O=C(CC12CC3CC(CC(C3)C1)C2)Nc1ncnc2c1CCN(S(=O)(=O)Cc1ccc(Cl)c(Cl)c1)C2` [Compound 185], “++ (compound exhibited 25-50% inhibition at 0.3 μM)”.
Same read-out and setting: the result for `O=C(CC12CC3CC(CC(C3)C1)C2)Nc1ncnc2c1CCN(S(=O)(=O)Cc1cc(Cl)cc(Cl)c1)C2` [Compound 186] reads “++++ (compound exhibited 75% or greater inhibition at 0.3 μM)”.
The same measure, in the same setting: with `O=C(CC12CC3CC(CC(C3)C1)C2)Nc1ncnc2c1CCN(S(=O)(=O)Cc1cccc(C(F)(F)F)c1)C2` [Compound 187] the entry was “++++ (compound exhibited 75% or greater inhibition at 0.3 μM)”.
For the compound `O=C(CC12CC3CC(CC(C3)C1)C2)Nc1ncnc2c1CCN(S(=O)(=O)Cc1ccc(Cl)cc1)C2` [Compound 189], the IL-1β % inhibition result is given as “++++ (compound exhibited 75% or greater inhibition at 0.3 μM)”.
Same read-out and setting: the result for `O=C(CC12CC3CC(CC(C3)C1)C2)Nc1ncnc2c1CCN(S(=O)(=O)c1ccc(OC(F)F)cc1)C2` [Compound 190] reads “+++ (compound exhibited 50-75% inhibition at 0.3 μM)”; that for `O=C(CC12CC3CC(CC(C3)C1)C2)Nc1ncnc2c1CCN(S(=O)(=O)c1ccc(Oc3ccccc3)cc1)C2` [Compound 191], “+ (compound exhibited 0-25% inhibition at 0.3 μM)”.

The values are drawn from patent publication US7297700B2, “Bicycloheteroaryl compounds as P2X7 modulators and uses thereof” (Renovis, Inc., priority 2005, dated 2007).
